Drawing on ChEMBL document CHEMBL1143110, “Targeting ACE and ECE with dual acting inhibitors” (Bioorg Med Chem Lett, 2008), this text covers IC50 for 14 compounds.

One assay concerns the target Neprilysin (Homo sapiens, UniProt P08473). The assay can be described thus: Inhibition of NEP.
The nature of assay [1]: Inhibition of ECE.
Assay [2] addresses Angiotensin-converting enzyme (Homo sapiens, UniProt P12821). The assay can be described thus: Inhibition of ACE.

What is called IC50 is the concentration that gives 50% inhibition. Read a low IC50 as higher potency. `CC(C)CN(CCP(=O)(O)O)C(=O)N[C@@H](Cc1ccc2ccccc2c1)C(=O)O` yielded an IC50 against Neprilysin of 6 nM.
On to `CC(C)CN(C[C@H](O)C(=O)O)C(=O)N[C@@H](Cc1ccc(-c2ccccc2)cc1)C(=O)O`, for which the IC50 turned out to be 3490 nM in assay [1], 10 nM at Neprilysin and 35 nM in assay [2].
Take `CC(C)CN(CP(=O)(O)O)C(=O)N[C@@H](Cc1ccc2ccccc2c1)C(=O)O`: the IC50 against Neprilysin came to 2 nM; in assay [2] it was 29 nM.
For the compound `O=C(O)[C@H](Cc1ccc2ccccc2c1)NC(=O)N(CCN1C(=O)c2cccc3cccc(c23)C1=O)C[C@H](O)C(=O)O`, the IC50 is 600 nM in assay [1], 650 nM on Neprilysin and 1980 nM in assay [2].
In assay [2], `O=C1c2ccccc2-c2ccc(CN(C[C@H](O)C(=O)O)C(=O)N[C@@H](Cc3ccc4ccccc4c3)C(=O)O)cc21` gave an IC50 of 39 nM.
Regarding `O=C(O)[C@H](Cc1ccc2ccccc2c1)NC(=O)N(Cc1ccc2c(c1)Cc1ccccc1-2)C[C@H](O)C(=O)O`, the IC50 at Neprilysin came to 19000 nM; in assay [2], 150 nM.
For `CC(C)(C)CN(C[C@H](O)C(=O)O)C(=O)N[C@@H](Cc1ccc2ccccc2c1)C(=O)O`, in that order: 5 nM and 191 nM.
For the compound `CC(C)CN(C[C@H](O)C(=O)O)C(=O)N[C@@H](Cc1c[nH]c2ccccc12)C(=O)O`, the IC50 in assay [1] turned out to be 16500 nM; against Neprilysin it was 8 nM; in assay [2], 103 nM.
Take `CC(C)CN(C[C@H](O)C(=O)O)C(=O)N[C@@H](Cc1ccc(O)c(O)c1)C(=O)O`: the IC50 is 19 nM at Neprilysin and 23 nM in assay [2].
For `CC(C)CN(C[C@H](O)C(=O)O)C(=O)N[C@@H](Cc1cccc2ccccc12)C(=O)O`, in that order: 9 nM and 110 nM.
Compound `CCC(CC)CN(C[C@H](O)C(=O)O)C(=O)N[C@@H](Cc1ccc2ccccc2c1)C(=O)O` returned an IC50 against Neprilysin of 36 nM.
Turning to `CC(C)CN(C[C@H](O)C(=O)O)C(=O)N[C@@H](Cc1ccc2ccccc2c1)C(=O)O`, the IC50 in assay [1] came out at 2500 nM; on Neprilysin, 4 nM; in assay [2], 52 nM.
Turning to `CC(C)CN(C[C@H](O)C(=O)O)C(=O)N[C@@H](Cc1ccc(O)cc1)C(=O)O`, the values for the IC50 (at Neprilysin; in assay [2]) were 6 nM and 60 nM, respectively.
The compound `O=C1c2ccccc2C(=O)c2cc(CN(C[C@H](O)C(=O)O)C(=O)N[C@@H](Cc3ccc4ccccc4c3)C(=O)O)ccc21` returned an IC50 in assay [2] of 40 nM.
